Experimental data published in US10752581B2, “4-((2-hydroxy-3-methoxybenzyl)amino)benzenesulfonamide derivatives as potent and selective inhibitors of 12-lipoxygenase” (Eastern Virginia Medical School, priority 2013, dated 2020).

Columns and labels:
[1] = system: human donor islet preparations; test: Glucose-stimulated insulin secretion in human islets; assay type: cell-based; settings: cytokines (TNFα, IL-1β, IFNγ); 3 mM or 18 mM glucose
Experimental: FIGS. 3D and 3E show results from glucose-stimulated insulin secretion in human donor islet preparations in response to 3 mM glucose (Low) or 18 mM glucose (High) for control (untreated) islets. […] FIGS. 3D and 3E represent results obtained in different human donor islet preparations.

[2] = system: washed human platelets; test: PAR4-AP-induced calcium mobilization; assay type: cell-based; settings: 200 μM PAR4-AP; increasing concentrations
Experimental: (§1) Blood was centrifuged at 200 g for 13 min at room temperature.

[3] = system: FcγRIIa-stimulated platelets; test: Dense granule secretion (ATP release) after FcγRIIa stimulation; assay type: cell-based, human; settings: compared with DMSO treated platelets
Description: (§2) Preparation of washed human platelets: Prior to blood collection written informed consent was obtained from all volunteers. Washed platelets were isolated from the blood of healthy volunteers as previously described (14). Washed platelets were resuspended in tyrodes buffer at 3.0×10^8 platelets/mL unless otherwise indicated.
(§3) FcγRIIa-mediated platelet activation: FcγRIIa-mediated platelet activation was initiated by two distinct models; either 1) FcγRIIa antibody cross-linking or 2) CD9 monoclonal antibody stimulation. To cross-link FcγRIIa, washed platelets were incubated with IV.3, an FcγRIIa mouse monoclonal antibody, for one minute followed by the addition of a goat anti-mouse (GAM) IgG antibody to cross-link FcγRIIa. The concentration of FcγRIIa cross-linking antibodies used for each experiment is indicated in the text. Alternatively, washed human platelets were stimulated with an anti-CD9 monoclonal antibody to activate FcγRIIa mediated signaling. Due to inter-individual variability in anti-CD9 response, a range of anti-CD9 concentration (0.25-1 μg/ml) was used to achieve an aggregation of EC80. […]
Dense granule secretion: ATP release was measured from washed platelets as surrogate for dense granule secretion. […] Platelets were stimulated with FcγRII antibody cross-linking under stirring conditions and fluorescence was measured in real-time using a lumi-aggregometer.

[4] = system: Caco-2; test: Caco-2 assay permeability; assay type: in vitro ADME; settings: A→B
[5] = system: FcγRIIa-stimulated platelets; test: FcγRIIa phosphorylation (immunoprecipitation, Western blot); assay type: cell-based, human; settings: ML355 (20 μM); IV.3+GAM
Experimental: (§4) FIGS. 15A-15B show the role of 12-LOX in regulating the FcγRIIa signaling complex. Washed human platelets were pre-treated with ML355 (20 μM) or vehicle control prior to IV.3 and GAM stimulation. (FIG. 15A) Immunoprecipitation of FcγRIIa at 15, 30, and 60 seconds post crosslinking and measured for phosphorylation via Western blot. (FIG. 15B) Platelets were lysed following FcγRIIa cross-linking in the presence of ML355 or DMSO were immunoblotted for active (pY323) and total Syk.
To investigate whether 12-LOX directly regulated FcγRIIa phosphorylation, FcγRIIa was immunoprecipitated from IV.3+GAM-stimulated platelets treated with ML355 or DMSO and immunoblotted for phosphorylation of FcγRIIa.
as §3, with “signaling.” for “signaling. Due to inter-individual variability in anti-CD9 response, a range of anti-CD9 concentration (0.25-1 μg/ml) was used to achieve an aggregation of EC80.”

[6] = system: FcγRIIa-stimulated platelets; test: Rap1 activation after FcγRIIa stimulation; assay type: cell-based, human; settings: ML355 pre-treatment
Description: as §2
as §3, with “EC80. In studies using the 12-LOX inhibitor (ML355), washed platelets were incubated with either ML355 (20 μM), or DMSO (vehicle control) for 15 minutes prior to FcγRIIa stimulation.” for “EC80.”

[7] = in vivo; settings: male, CD1, mouse
[8] = system: washed human platelets; test: PAR4-AP-induced platelet aggregation; assay type: cell-based
Experimental: as §1

[9] = system: FcγRIIa-stimulated platelets; test: PLCγ2 phosphorylation after FcγRIIa cross-linking; assay type: cell-based, human; settings: ML355 (20 μM); 15 and 30 seconds
Experimental: (§5) FcγRIIa-mediated platelet activation: FcγRIIa-mediated platelet activation was initiated by two distinct models; either 1) FcγRIIa antibody cross-linking or 2) CD9 monoclonal antibody stimulation. To cross-link FcγRIIa, washed platelets were incubated with IV.3, an FcγRIIa mouse monoclonal antibody, for one minute followed by the addition of a goat anti-mouse (GAM) IgG antibody to cross-link FcγRIIa. The concentration of FcγRIIa cross-linking antibodies used for each experiment is indicated in the text. Alternatively, washed human platelets were stimulated with an anti-CD9 monoclonal antibody to activate FcγRIIa mediated signaling. Due to inter-individual variability in anti-CD9 response, a range of anti-CD9 concentration (0.25-1 μg/ml) was used to achieve an aggregation of EC80. In studies using the 12-LOX inhibitor (ML355), washed platelets were incubated with either ML355 (20 μM), or DMSO (vehicle control) for 15 minutes prior to FcγRIIa stimulation.
PLCγ2 phosphorylation: Washed human platelets were adjusted to 5×10^8 platelets/mL and stimulated in an aggregometer by antibody cross-linking of FcγRIIa and lysed at designated times with 5× reducing buffer to stop the reaction. Samples were separated on a 7.5% SDS-PAGE gel. Antibodies to PLCy2 and phospho-Y759 PLCy2, a marker of PLCy2 activation, were used to evaluate the relative levels of total and active PLCy2, respectively.

[10] = system: FcγRIIa-stimulated platelets; test: Calcium mobilization after FcγRIIa cross-linking; assay type: cell-based, human; settings: ML355 (20 μM); compared to DMSO treated platelets
Experimental: as §5
Calcium mobilization: Intracellular calcium release was measured as previously described. […] Platelets were stimulated by FcγRIIa antibody cross-linking and fluorescence intensity was measured in real-time by flow cytometry. Data is reported as the fold change in the fluorescence intensity comparing maximum fluorescence intensity relative to fluorescence intensity prior to platelet stimulation.

[11] = In Vivo PK (Mouse)
[12] = PBS buffer (pH 7.4) solubility; assay type: physicochemical; settings: PBS buffer, pH 7.4, aqueous buffer
[13] = system: FcγRIIa-stimulated platelets; test: Syk phosphorylation after FcγRIIa cross-linking; assay type: cell-based, human; settings: ML355 (20 μM)
Experimental: as §4
Phosphorylation of FcγRIIa results in recruitment and activation of the tyrosine kinase Syk which is crucial for the formation of the LAT signalosome. The phosphorylation of Syk was measured following FcγRIIa stimulation of platelets in the presence or absence of ML355. The degree of Syk phosphorylation in response to FcγRIIa cross-linking in the presence of ML355 was varied in the subjects tested and may be due to inter-individual variability. […] To assess if 12-LOX regulates PLCy2 activation downstream of FcγRIIa, PLCy2 phosphorylation was measured in washed human platelets in the presence or absence of ML355. Platelets stimulated by FcγRIIa antibody cross-linking were phosphorylated within 15 seconds following stimulation. […]

[14] = male, CD1, mouse, in vivo, intravenous, 3 mpk
[15] = male, CD1, mouse, in vivo, iv, 3 mg/kg
[16] = male, CD1, mouse, in vivo, po, 30 mg/kg

COc1cccc(CNc2ccc(S(=O)(=O)Nc3nc4ccccc4s3)cc2)c1O [Compound 35, N-(benzo[d]thiazol-2-yl)-4-((2-hydroxy-3-methoxybenzyl)amino)benzenesulfonamide]
glucose-stimulated insulin secretion with cytokines [1]: Uncoupling of glucose-stimulated insulin secretion by cytokines is inhibited | PAR4-AP-induced calcium mobilization (in words) [2]: Calcium mobilization was decreased | ATP release (dense granule secretion) [3]: significant decrease in ATP release | permeability (1 × 10^−6 cm/s) [4]: 1.5 (A→B)^a 1 × 10^−6 cm/s | FcγRIIa phosphorylation [5]: No difference in FcγRIIa phosphorylation | Rap1 activation [6]: failed to activate Rap1 | half-life [7]: 2.9 h | PAR4-AP induced platelet aggregation (in words) [8]: significantly reduce PAR4-AP induced platelet aggregation | platelet aggregation at 10 μM ([8]; 10 μM, PAR4-AP): did not inhibit platelet aggregation | PLCγ2 phosphorylation [9]: attenuated PLCy2 phosphorylation at 15 and 30 seconds | intracellular Ca2+ release [10]: decrease in intracellular Ca^2+ | time remaining over IC50 value ([11]; 30 mpk dosing): over 12 hours | % F ([11]; PO, 30 mpk): 19.8% | Vd [11, 14]: 0.55 L/kg | clearance [11, 14]: 3.4 mL/min/kg | AUC(0-inf) [11, 15]: 34 µM·h | Cmax [11, 15]: 112 µM | Vd [11, 15]: 0.55 L/kg | clearance [11, 15]: 3.4 mL/min/kg | half-life [11, 15]: 3.4 h | AUC(0-inf) [11, 16]: 67 µM·h | Cmax [11, 16]: 38 µM | bioavailability [11, 16]: ~20% | half-life [11, 16]: 2.9 h | solubility [12]: < 5 µg/mL | Syk phosphorylation [13]: attenuation of Syk phosphorylation in the presence of ML355 was minor
